Reference: ChEMBL document CHEMBL5465560, “Selectivity Literature for EUbOPEN Chemogenomic Library” (2024)

Tests used:
[1] = molecular target: Serine/threonine-protein kinase PAK 3 (Homo sapiens) (UniProt O75914); test: Selectivity interaction (KinomeScan (DiscoverX)) EUB0000595a PAK3; details: at 10 µM
[2] = molecular target: Vascular endothelial growth factor receptor 3 (Homo sapiens, UniProt P35916); test: Selectivity interaction (KinomeScan (DiscoverX)) EUB0000695a FLT4; details: at 100 nM
[3] = molecular target: T1, Serine/threonine-protein kinase Sgk2 (Homo sapiens) (UniProt Q9HBY8); test: Selectivity interaction (KinomeScan (DiscoverX)) EUB0001049a SGK2; details: at 1 µM
T1 sequence (whole entry): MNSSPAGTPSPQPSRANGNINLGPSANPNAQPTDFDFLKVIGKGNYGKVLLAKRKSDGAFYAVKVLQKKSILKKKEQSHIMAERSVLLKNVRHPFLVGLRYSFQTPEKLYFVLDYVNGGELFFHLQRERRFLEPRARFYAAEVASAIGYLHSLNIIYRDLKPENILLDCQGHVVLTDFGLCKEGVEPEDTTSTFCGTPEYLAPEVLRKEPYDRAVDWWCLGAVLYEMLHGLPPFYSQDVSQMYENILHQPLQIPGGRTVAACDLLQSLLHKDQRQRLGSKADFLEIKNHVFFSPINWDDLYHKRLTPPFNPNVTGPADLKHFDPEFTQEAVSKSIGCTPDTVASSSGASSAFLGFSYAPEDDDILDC

[4] = molecular target: Insulin receptor-related protein (Homo sapiens) (UniProt P14616); test: Selectivity interaction (Upstate Kinase Profiler service (Millipore)) EUB0000056c INSRR; details: at 1 µM
[5] = molecular target: MAP kinase-interacting serine/threonine-protein kinase 2 (Homo sapiens, UniProt Q9HBH9); test: Selectivity interaction (Upstate Kinase Profiler service (Millipore)) EUB0000056c MKNK2; details: at 1 µM
[6] = molecular target: T2, Serine/threonine-protein kinase Nek9 (Homo sapiens) (UniProt Q8TD19); test: Selectivity interaction (ProQinase) EUB0000171b NEK9
T2 sequence (whole entry): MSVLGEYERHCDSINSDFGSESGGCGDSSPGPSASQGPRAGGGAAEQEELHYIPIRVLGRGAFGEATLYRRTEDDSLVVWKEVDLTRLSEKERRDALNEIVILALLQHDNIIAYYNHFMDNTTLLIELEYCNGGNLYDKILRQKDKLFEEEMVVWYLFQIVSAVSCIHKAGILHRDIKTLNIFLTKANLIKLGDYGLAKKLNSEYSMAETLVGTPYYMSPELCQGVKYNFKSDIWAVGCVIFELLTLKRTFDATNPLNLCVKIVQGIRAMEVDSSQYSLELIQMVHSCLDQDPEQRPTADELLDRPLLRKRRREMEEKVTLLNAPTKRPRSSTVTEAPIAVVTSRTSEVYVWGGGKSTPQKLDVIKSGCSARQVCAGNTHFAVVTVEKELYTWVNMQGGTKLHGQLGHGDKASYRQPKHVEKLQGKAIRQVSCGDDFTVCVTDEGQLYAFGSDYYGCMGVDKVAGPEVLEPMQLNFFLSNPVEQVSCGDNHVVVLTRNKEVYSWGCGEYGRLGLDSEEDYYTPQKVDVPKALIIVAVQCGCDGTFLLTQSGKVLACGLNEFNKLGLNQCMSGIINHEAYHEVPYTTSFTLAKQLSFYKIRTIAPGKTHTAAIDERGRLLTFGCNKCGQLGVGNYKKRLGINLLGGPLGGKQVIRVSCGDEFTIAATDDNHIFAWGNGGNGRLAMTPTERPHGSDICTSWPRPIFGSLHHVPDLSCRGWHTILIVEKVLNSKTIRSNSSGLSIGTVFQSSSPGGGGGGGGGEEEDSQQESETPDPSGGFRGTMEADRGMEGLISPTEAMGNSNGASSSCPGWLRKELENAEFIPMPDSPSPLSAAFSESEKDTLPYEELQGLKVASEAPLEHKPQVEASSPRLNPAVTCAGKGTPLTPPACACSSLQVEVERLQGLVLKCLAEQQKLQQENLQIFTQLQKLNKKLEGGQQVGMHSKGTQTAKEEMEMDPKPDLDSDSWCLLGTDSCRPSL

[7] = molecular target: Serine/threonine-protein kinase 32C (Homo sapiens) (UniProt Q86UX6); test: Selectivity interaction (KinomeScan (DiscoverX)) EUB0001619a STK32C; details: at 1 µM
[8] = molecular target: T3, Protein kinase C epsilon type (Homo sapiens) (UniProt Q02156); test: Selectivity interaction (SelectScreen profiling (Invitrogen)) EUB0000607a PRKCE; details: at 2 µM
T3 sequence (whole entry): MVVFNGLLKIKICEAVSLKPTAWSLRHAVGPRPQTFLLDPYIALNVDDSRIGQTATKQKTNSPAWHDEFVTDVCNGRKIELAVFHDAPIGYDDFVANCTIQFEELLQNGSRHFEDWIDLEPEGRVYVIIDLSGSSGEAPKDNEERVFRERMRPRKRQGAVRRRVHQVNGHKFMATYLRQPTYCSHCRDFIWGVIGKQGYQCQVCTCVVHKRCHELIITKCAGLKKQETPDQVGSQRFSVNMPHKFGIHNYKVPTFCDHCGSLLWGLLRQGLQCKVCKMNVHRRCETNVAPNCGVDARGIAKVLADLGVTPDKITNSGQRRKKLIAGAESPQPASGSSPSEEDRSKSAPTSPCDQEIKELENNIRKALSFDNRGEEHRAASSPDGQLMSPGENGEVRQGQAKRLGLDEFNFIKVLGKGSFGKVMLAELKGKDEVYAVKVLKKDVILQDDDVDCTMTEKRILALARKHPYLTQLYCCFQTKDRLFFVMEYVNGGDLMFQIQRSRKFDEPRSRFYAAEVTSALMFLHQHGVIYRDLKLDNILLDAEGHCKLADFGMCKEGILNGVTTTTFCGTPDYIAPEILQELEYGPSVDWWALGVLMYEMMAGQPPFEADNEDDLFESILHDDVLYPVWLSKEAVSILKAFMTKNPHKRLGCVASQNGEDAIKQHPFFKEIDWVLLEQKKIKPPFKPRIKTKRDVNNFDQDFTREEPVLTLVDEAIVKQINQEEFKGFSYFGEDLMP

[9] = molecular target: Rho-associated protein kinase 1 (Homo sapiens) (UniProt Q13464); test: Selectivity interaction (SelectScreen profiling (Invitrogen)) EUB0000607a ROCK1; details: at 2 µM
[10] = molecular target: G protein-coupled receptor kinase 4 (Homo sapiens) (UniProt P32298); test: Selectivity interaction (KinomeScan (DiscoverX)) EUB0000618a GRK4; details: at 10 µM
Sequence of G protein-coupled receptor kinase 4 (Homo sapiens) (P32298 whole entry, looked up): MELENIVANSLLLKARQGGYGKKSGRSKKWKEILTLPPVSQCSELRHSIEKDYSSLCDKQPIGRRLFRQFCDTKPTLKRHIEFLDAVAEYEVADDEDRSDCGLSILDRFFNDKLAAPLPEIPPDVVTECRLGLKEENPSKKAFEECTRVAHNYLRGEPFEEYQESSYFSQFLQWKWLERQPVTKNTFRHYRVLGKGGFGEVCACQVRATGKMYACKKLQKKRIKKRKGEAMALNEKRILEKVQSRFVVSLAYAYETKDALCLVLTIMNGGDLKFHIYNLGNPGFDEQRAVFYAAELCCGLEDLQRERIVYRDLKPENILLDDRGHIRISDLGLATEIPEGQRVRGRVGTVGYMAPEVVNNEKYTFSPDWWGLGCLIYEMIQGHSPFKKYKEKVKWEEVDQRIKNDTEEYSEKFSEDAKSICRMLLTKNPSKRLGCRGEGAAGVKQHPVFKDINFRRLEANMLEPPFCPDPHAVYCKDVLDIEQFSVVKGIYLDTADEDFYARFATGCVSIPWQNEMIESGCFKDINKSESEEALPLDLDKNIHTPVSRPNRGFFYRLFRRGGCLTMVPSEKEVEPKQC

Sequence of Serine/threonine-protein kinase 32C (Homo sapiens) (Q86UX6 whole entry): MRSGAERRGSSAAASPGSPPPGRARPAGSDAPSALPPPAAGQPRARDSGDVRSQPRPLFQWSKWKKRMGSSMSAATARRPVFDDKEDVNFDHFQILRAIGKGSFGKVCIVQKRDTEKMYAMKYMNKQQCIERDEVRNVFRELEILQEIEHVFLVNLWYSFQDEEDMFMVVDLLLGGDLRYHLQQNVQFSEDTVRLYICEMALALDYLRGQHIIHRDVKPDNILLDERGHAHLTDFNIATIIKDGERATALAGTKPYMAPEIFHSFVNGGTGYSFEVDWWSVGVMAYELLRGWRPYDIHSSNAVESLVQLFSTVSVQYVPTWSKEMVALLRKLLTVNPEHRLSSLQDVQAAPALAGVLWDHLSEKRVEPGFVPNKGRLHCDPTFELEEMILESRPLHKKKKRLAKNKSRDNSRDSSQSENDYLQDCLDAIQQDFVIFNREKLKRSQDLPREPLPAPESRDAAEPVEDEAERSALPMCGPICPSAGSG
Sequence of Vascular endothelial growth factor receptor 3 (P35916 whole entry): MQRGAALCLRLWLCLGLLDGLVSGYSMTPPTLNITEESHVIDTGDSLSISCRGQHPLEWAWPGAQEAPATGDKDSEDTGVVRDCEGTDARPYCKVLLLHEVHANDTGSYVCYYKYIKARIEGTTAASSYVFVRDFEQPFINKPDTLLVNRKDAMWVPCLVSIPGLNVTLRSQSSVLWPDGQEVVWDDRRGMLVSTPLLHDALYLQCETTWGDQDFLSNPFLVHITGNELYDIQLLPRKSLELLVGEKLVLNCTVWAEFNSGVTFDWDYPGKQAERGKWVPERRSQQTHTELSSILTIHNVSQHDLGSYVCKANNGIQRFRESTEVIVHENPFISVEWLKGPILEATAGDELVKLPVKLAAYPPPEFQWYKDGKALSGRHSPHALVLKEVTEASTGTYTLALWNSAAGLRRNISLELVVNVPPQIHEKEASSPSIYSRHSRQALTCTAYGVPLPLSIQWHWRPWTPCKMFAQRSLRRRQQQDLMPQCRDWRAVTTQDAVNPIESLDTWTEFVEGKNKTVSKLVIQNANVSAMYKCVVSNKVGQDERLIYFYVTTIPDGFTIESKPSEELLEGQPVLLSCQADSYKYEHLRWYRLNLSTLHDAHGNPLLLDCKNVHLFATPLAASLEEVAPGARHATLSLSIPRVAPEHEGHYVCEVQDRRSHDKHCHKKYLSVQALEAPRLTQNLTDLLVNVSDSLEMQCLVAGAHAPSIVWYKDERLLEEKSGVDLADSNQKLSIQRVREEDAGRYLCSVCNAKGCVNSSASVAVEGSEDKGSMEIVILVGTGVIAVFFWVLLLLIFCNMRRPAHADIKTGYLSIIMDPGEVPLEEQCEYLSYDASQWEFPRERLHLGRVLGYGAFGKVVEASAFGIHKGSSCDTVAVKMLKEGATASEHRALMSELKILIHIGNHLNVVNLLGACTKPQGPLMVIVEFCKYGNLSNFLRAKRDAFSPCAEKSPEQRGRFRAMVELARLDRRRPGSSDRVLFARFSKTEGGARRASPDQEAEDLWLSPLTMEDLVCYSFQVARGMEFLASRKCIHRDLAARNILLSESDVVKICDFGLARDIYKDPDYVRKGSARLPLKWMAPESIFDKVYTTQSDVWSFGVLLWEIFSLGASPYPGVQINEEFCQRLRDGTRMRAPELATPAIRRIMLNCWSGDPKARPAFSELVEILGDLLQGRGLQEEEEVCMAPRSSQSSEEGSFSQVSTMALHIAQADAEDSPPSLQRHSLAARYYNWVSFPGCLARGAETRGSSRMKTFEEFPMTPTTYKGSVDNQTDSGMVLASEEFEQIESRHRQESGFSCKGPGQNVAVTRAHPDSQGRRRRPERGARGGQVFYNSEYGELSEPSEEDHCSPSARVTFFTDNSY
Sequence of Rho-associated protein kinase 1 (Homo sapiens) (Q13464 2-1354 limits assumed): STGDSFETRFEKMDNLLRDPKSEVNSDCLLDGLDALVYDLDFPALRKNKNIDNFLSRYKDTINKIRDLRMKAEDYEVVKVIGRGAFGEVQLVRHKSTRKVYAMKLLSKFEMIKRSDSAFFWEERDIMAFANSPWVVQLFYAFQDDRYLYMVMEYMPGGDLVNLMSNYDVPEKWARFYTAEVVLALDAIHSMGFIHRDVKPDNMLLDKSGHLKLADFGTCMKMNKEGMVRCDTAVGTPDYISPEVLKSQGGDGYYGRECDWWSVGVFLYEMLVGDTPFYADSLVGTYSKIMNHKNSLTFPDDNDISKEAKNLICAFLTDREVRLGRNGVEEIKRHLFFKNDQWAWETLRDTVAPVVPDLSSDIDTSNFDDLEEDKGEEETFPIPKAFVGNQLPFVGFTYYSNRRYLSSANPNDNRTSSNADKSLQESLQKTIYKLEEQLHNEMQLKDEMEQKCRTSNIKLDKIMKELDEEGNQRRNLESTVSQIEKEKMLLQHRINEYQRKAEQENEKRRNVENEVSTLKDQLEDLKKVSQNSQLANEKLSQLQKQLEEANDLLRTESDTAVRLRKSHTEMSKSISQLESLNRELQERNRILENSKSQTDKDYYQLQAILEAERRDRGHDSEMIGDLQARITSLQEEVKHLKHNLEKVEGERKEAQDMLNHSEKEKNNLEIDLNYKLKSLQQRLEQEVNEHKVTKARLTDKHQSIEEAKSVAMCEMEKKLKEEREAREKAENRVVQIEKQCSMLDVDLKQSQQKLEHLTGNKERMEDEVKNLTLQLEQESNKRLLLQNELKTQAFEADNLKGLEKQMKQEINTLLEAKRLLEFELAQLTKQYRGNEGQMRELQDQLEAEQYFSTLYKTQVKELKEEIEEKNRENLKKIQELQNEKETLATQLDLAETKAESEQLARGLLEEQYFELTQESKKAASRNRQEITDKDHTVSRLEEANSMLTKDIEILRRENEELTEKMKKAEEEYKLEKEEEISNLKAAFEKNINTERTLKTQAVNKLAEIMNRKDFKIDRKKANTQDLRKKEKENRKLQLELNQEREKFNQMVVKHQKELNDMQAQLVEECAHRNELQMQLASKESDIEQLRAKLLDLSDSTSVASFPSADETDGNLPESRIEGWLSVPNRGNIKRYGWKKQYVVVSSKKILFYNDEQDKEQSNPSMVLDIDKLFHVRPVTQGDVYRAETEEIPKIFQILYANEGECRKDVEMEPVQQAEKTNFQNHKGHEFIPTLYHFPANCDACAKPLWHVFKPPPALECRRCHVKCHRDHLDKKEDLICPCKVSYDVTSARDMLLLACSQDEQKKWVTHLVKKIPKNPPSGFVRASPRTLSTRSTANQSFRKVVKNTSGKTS
Sequence of Serine/threonine-protein kinase PAK 3 (Homo sapiens) (O75914 whole entry, looked up): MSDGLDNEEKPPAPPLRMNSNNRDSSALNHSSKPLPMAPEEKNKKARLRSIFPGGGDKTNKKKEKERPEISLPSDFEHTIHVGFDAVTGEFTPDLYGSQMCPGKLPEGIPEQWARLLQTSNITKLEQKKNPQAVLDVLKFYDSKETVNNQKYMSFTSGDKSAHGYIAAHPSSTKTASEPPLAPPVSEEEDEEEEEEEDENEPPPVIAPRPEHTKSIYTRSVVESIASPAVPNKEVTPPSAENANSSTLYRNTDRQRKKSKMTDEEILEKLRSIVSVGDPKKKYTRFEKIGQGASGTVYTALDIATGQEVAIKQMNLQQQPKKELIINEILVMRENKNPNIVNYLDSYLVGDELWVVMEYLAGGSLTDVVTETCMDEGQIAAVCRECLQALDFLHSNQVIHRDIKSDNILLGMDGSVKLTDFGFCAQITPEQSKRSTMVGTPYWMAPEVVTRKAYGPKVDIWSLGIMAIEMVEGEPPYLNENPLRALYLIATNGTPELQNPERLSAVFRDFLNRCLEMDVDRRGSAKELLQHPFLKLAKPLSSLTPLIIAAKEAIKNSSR
Sequence of MAP kinase-interacting serine/threonine-protein kinase 2 (Q9HBH9 whole entry, looked up): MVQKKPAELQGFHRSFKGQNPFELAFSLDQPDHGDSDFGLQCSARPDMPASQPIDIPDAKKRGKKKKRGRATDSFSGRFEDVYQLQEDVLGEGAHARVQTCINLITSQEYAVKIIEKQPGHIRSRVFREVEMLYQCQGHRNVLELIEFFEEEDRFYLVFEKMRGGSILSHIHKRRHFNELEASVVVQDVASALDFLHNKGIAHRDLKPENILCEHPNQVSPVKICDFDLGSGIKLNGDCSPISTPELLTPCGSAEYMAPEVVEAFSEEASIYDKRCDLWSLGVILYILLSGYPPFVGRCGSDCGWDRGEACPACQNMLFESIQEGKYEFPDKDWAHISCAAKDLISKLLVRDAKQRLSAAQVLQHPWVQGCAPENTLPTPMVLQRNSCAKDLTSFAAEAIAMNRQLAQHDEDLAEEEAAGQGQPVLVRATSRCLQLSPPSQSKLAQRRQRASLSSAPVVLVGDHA

`COCC(=O)NC/C=C/c1ccc2ncnc(Nc3ccc(Oc4ccc(C)nc4)c(C)c3)c2c1` [CP-724714] showed a % of control [1] of 70%.

For `Cc1cc(F)c(C(=O)Nc2cccc(-c3nncn3C(C)C)n2)cc1-n1cnc(C2CC2)c1`, the % of control [2] was 100%.

In the case of `COc1cc(Nc2nc(C)cc(-c3cnn4nc(OC)ccc34)n2)cc(C(F)(F)F)c1`, the % of control [3] is reported as 78%.

With `Cc1ccc(-c2ccc3c(ccc4sc5c(c43)NC[C@@H](C)NC5=O)n2)cn1` the % of inhibition [4] was -8% and the % of inhibition [5] was 85%.

`C=CC(=O)Nc1cccc(C(=O)Nc2ccc(Nc3cc(-c4[nH]c(SC)nc4C)ccn3)cc2)c1` gave a % of control ([6]; at 1 µM) of 97% and a % of control ([6]; at 5 µM) of 73%.

`N#Cc1cccc(-c2c[nH]c3ncnc(N4CCOCC4)c23)c1` gave a % of control [7] of 100%.

`CNC(=O)Nc1ccc(-c2nc(N3CC4CCC(C3)O4)c3cnn(C4CCC5(CC4)OCCO5)c3n2)cc1` showed a % of inhibition [8] of 15% and a % of inhibition [9] of -8%.

In the case of `O[C@H]1CC[C@H](Nc2ncc3nc(Nc4c(F)cc(F)cc4F)n([C@H]4CCOC4)c3n2)CC1`, the % of control [10] is reported as 98%.
